# Data: patent US20240018125A1, “CYCLIC ISOTHIOUREA DERIVATIVES AS CXCR4 MODULATORS” (ERMIUM THERAPEUTICS, priority 2020, published 2024)
# Structures can show the parent of a compound that is named as a salt.
# Columns and labels:
# [1] = target: T1, Recombinant CXCR4 receptor (Homo sapiens, UniProt P61073); experiment: G.Validation fluorescence assay of CXCR4 receptor conformational changes in lipidic micelles SB2L4 and SB3L1; format: biochemical; settings: ligand 150 μM over basal state, 5 μM labelled CXCR4, 40 min
# T1 construct: host or cells: HEK-293 T cells
# T1 sequence (P61073 whole entry): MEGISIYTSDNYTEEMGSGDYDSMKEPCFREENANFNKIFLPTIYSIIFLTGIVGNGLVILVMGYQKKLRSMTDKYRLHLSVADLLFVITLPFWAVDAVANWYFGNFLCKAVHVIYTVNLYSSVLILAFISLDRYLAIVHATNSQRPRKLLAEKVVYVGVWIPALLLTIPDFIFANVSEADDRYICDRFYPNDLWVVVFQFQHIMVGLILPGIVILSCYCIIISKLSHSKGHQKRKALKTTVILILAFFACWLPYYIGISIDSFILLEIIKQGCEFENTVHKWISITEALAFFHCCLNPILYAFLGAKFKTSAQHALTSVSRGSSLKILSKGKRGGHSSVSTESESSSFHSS
# Description: G.Validation® assay is […] biotech proprietary fluorescence based assay that assesses conformational changes of a receptor upon activation/inactivation. Recombinant CXCR4 receptor is produced and purified from HEK-293 T cells using […] proprietary mixes. Receptor is then reconstituted in detergent buffers containing lipids mimicking the lipidic composition of dendritic cells (DC) and macrophages (SB2L4 and SB3L1). Thereafter, the receptor is labelled with a non-modifying probe allowing the detection of the activation state and conformational change of the receptor upon addition of a ligand. Indeed, the probe emission spectra maximum wavelength (Amax) shifts according to activation/inactivation of the receptor. Thus, kinetic of activation/inactivation of the receptor can be followed by monitoring Amax shift after addition of a ligand over time. Emission spectra were registered for 40 minutes after addition of each ligand. […] Activation/inactivation kinetics were also followed using an exemplary compound of formula (I), i.e.
# [2] = test system: peripheral blood mononuclear cells (PBMCs) from healthy donors; experiment: IFN production by R848-activated PBMCs, quantified with twINNE luciferase reporter cell line; format: cell-based, human; settings: Homo sapiens, PBMC; read-out: IC50 of anti-inflammatory activity (IFN production by activated PBMCs)
# Procedure, shortened: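 Functional IFN was quantified by luciferase output from the twINNE ISRE-reporter line after 24 h on conditioned supernatants. Those supernatants came from human PBMCs (4.10^6/mL) pre-treated with compound and then stimulated for 24 h with 5 μg/mL resiquimod. IC50s were fitted by nonlinear variable-slope regression.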
# [3] = test system: Female Balb/c mice, pristane-induced lupus; experiment: In vivo pristane-induced lupus mouse model, anti-dsDNA antibody titers in serum by ELISA
# Protocol: Female Balb/c mice (6 to 8 weeks, ENVIGO, Indianapolis, USA) received a single i.p. injection with 0.5 mL of pristane (Sigma-Aldrich, St Louis, USA) to induce a lupus-like disease. That same day, once daily treatment was started (10 mL/kg), either with vehicle control (PBS) i.p., with prednisolone (Sigma-Aldrich, St Louis, USA) in PBS p.o. at a dose of 15 mg/kg (positive control), or with an exemplary compound of formula (I), i.e. Example 60, at a dose of either 3 mg/kg, 10 mg/kg or 30 mg/kg in PBS i.p. After 4, 6 and 8 weeks of dosing, sample bleeds for each mouse were collected via the orbital sinus, and immediately cold processed to sera and stored (50 μl) at −80° C. until analysis. In serum, anti-dsDNA antibody titers are determined using ELISA. Optical density was measured at 450 nm (OD450) using a microplate reader. Data are reported as anti-dsDNA Ab titers (OD), mean±S.E.M. as well as the statistical significance versus pristane-induced vehicle treated group using t-tests.
# [4] = test system: irrelevant G-protein coupled receptor (GPCR); experiment: G.Validation fluorescence assay on irrelevant GPCR control; format: biochemical; settings: SDF1α 15 μM, AMD3100 100 μM, Example 60 150 μM; SB3L1
# [5] = test system: Male C57BL/6 Rj mice; experiment: In vivo evaluation of CXCR4 antagonistic activity by mobilisation of blood cells; design: species or system mouse; settings: 30 mg/kg single i.p., 2:30 h after injection; shown also for neutrophils, monocytes, lymphocytes, eosinophils
# Protocol: Male C57BL/6 Rj mice (7 weeks old) were obtained from Janvier (Le Genest-Saint-Isle, France). Mice were treated by a single intraperitoneal (i.p.) administration at timepoint 0 h. The experimental groups (n=10) were defined as follows: • Mice of group 1 were treated with vehicle only (0.9% NaCl aqueous solution) • Mice of group 2 were treated with AMD3100 (CXCR4 antagonist, Sigma-Aldrich, St Louis, USA) at 20 mg/kg (volume of 10 mL/kg) in 0.9% NaCl aqueous solution • Mice of group 3 were treated with an exemplary compound of formula (I), i.e. Example 60, at 30 mg/kg (volume of 10 mL/kg) in 0.9% NaCl aqueous solution
# After 2:30 h, whole blood (at least 200 μl, max 1 mL) was collected in EDTA tubes before sacrifice by an intracardiac puncture under isoflurane anaesthesia and haematology parameters were determined the same day by laser flow cytometry, optical fluorescence and Laminar Flow Impedance™ using the ProCyte Dx hematology analyser (IDEXX, Eau Claire, USA). Differential leukocyte counts were performed to quantify specific immune cell types. Data are reported as total number of cells (K/μL), mean±S.E.M., as well as the statistical significance versus the vehicle control group using unpaired t-tests.
# [6] = test system: 129S8 mice infected with influenza A virus H3 N2 (X31); experiment: In vivo immunomodulating effect (type 1 IFNs in BALF) in acute influenza inflammation model; design: species or system mouse; settings: […]; even lower than after ibuprofen
smiles,measurement,setting,value
"Clc1ccc2c(c1)CN=C(SCCCCN1CCCC1)N2 [Example 60, 6-chloro-2-((4-(pyrrolidin-1-yl)butyl)thio)-1,4-dihydroquinazoline dihydrochloride]","CXCR4 structural activation/inactivation, Amax shift in fluorescence",[1],blue shift
same,IC50,[2],≤ 10 µM
same,anti-dsDNA Ab titers in serum vs vehicle-treated pristane-induced mice,"[3]; 3 mg/kg i.p. once daily, week 4",reduced
same,anti-dsDNA Ab titers in serum vs vehicle-treated pristane-induced mice,"[3]; 10 mg/kg i.p. once daily, week 4",reduced
same,anti-dsDNA Ab titers in serum vs vehicle-treated pristane-induced mice,"[3]; 10 mg/kg i.p. once daily, week 8, same range as prednisolone",significantly decreased
same,anti-dsDNA Ab titers in serum vs vehicle-treated pristane-induced mice,"[3]; 30 mg/kg i.p. once daily, week 4",reduced
same,anti-dsDNA Ab titers in serum vs vehicle-treated pristane-induced mice,"[3]; 30 mg/kg i.p. once daily, week 6",significantly lower
same,anti-dsDNA Ab titers in serum vs vehicle-treated pristane-induced mice,"[3]; 30 mg/kg i.p. once daily, week 8, same range as prednisolone",significantly decreased
same,"irrelevant GPCR activation state, Amax shift in fluorescence",[4],"Neither benchmark ligands SDF1α and AMD3100, nor Example 60 showed any effect"
same,numbers of white blood cells in the blood vs vehicle control,[5],not increased
same,concentration of IFNα in BALF vs vehicle-treated infected mice,[6],significantly decreased
same,concentration of IFNβ in BALF vs vehicle-treated infected mice,[6],significantly decreased
same,concentration of IFNλ2/3 in BALF vs vehicle-treated infected mice,[6],significantly decreased
